Assay results taken from ChEMBL document CHEMBL3046257, “Response of sweet maize (Zea mays L.) hybrids to halosulfuron” (Crop Prot, 2008).

Assays:
Assay type in all cases: organism-based
[1] = system: Zea mays; assay: Toxicity in Zea mays GH2684 (maize) assessed as cob size at 50 g ai/ha applied shortly post-emergence at three to five-leaf stage using backpack sprayer (reference value: 340 g); details: in vivo, other
[2] = system: Zea mays; assay: Toxicity in Zea mays GG214 (maize) assessed as cob size at 50 g ai/ha applied shortly post-emergence at three to five-leaf stage using backpack sprayer (reference value: 292 g); details: in vivo, other
[3] = system: Zea mays; assay: Toxicity in Zea mays GH2547 (maize) assessed as cob size at 25 g ai/ha applied shortly post-emergence at three to five-leaf stage using backpack sprayer (reference value: 315 g); details: in vivo, other
[4] = system: Zea mays; assay: Toxicity in Zea mays Empire (maize) assessed as cob size at 50 g ai/ha applied shortly post-emergence at three to five-leaf stage using backpack sprayer (reference value: 304 g); details: in vivo, other
[5] = system: Zea mays; assay: Toxicity in Zea mays GH2547 (maize) assessed as cob size at 50 g ai/ha applied shortly post-emergence at three to five-leaf stage using backpack sprayer (reference value: 315 g); details: in vivo, other
[6] = system: Zea mays; assay: Toxicity in Zea mays GG446 (maize) assessed as visible injury at 25 g ai/ha applied shortly post-emergence at three to five-leaf stage using backpack sprayer measured after 14 days; details: in vivo, other, 336 h
[7] = system: Zea mays; assay: Toxicity in Zea mays GH2547 (maize) assessed as plant height at 50 g ai/ha applied shortly post-emergence at three to five-leaf stage using backpack sprayer measured after 21 days (Rvb =80 cm); details: in vivo, other, 504 h
[8] = system: Zea mays; assay: Toxicity in Zea mays GH2298 (maize) assessed as marketable yield at 50 g ai/ha applied shortly post-emergence at three to five-leaf stage using backpack sprayer (reference value: 16.9 T/ha ); details: in vivo, other
[9] = system: Zea mays; assay: Toxicity in Zea mays GG446 (maize) assessed as cob size at 25 g ai/ha applied shortly post-emergence at three to five-leaf stage using backpack sprayer (reference value: 379 g); details: in vivo, other
[10] = system: Zea mays; assay: Toxicity in Zea mays GH2298 (maize) assessed as visible injury at 25 g ai/ha applied shortly post-emergence at three to five-leaf stage using backpack sprayer measured after 28 days; details: in vivo, other, 672 h
[11] = system: Zea mays; assay: Toxicity in Zea mays Empire (maize) assessed as visible injury at 50 g ai/ha applied shortly post-emergence at three to five-leaf stage using backpack sprayer measured after 28 days; details: in vivo, other, 672 h
[12] = system: Zea mays; assay: Toxicity in Zea mays GH2298 (maize) assessed as plant height at 50 g ai/ha applied shortly post-emergence at three to five-leaf stage using backpack sprayer measured after 21 days (Rvb =80 cm); details: in vivo, other, 504 h
[13] = system: Zea mays; assay: Toxicity in Zea mays GH2547 (maize) assessed as visible injury at 50 g ai/ha applied shortly post-emergence at three to five-leaf stage using backpack sprayer measured after 14 days; details: in vivo, other, 336 h
[14] = system: Zea mays; assay: Toxicity in Zea mays GSS9299 (maize) assessed as visible injury at 50 g ai/ha applied shortly post-emergence at three to five-leaf stage using backpack sprayer measured after 28 days; details: in vivo, other, 672 h
[15] = system: Zea mays; assay: Toxicity in Zea mays GG446 (maize) assessed as marketable yield at 25 g ai/ha applied shortly post-emergence at three to five-leaf stage using backpack sprayer (reference value: 20.0 T/ha ); details: in vivo, other
[16] = system: Zea mays; assay: Toxicity in Zea mays GSS9299 (maize) assessed as visible injury at 25 g ai/ha applied shortly post-emergence at three to five-leaf stage using backpack sprayer measured after 7 days; details: in vivo, other, 168 h
[17] = system: Zea mays; assay: Toxicity in Zea mays GH2298 (maize) assessed as visible injury at 25 g ai/ha applied shortly post-emergence at three to five-leaf stage using backpack sprayer measured after 7 days; details: in vivo, other, 168 h
[18] = system: Zea mays; assay: Toxicity in Zea mays GH2298 (maize) assessed as plant height at 25 g ai/ha applied shortly post-emergence at three to five-leaf stage using backpack sprayer measured after 21 days (Rvb =80 cm); details: in vivo, other, 504 h
[19] = system: Zea mays; assay: Toxicity in Zea mays GH2298 (maize) assessed as marketable yield at 25 g ai/ha applied shortly post-emergence at three to five-leaf stage using backpack sprayer (reference value: 16.9 T/ha ); details: in vivo, other
[20] = system: Zea mays; assay: Toxicity in Zea mays GG446 (maize) assessed as plant height at 50 g ai/ha applied shortly post-emergence at three to five-leaf stage using backpack sprayer measured after 21 days (reference value: 85 cm); details: in vivo, other, 504 h
[21] = system: Zea mays; assay: Toxicity in Zea mays GG446 (maize) assessed as visible injury at 50 g ai/ha applied shortly post-emergence at three to five-leaf stage using backpack sprayer measured after 14 days; details: in vivo, other, 336 h
[22] = system: Zea mays; assay: Toxicity in Zea mays GH2684 (maize) assessed as visible injury at 25 g ai/ha applied shortly post-emergence at three to five-leaf stage using backpack sprayer measured after 7 days; details: in vivo, other, 168 h
[23] = system: Zea mays; assay: Toxicity in Zea mays GH2041 (maize) assessed as visible injury at 25 g ai/ha applied shortly post-emergence at three to five-leaf stage using backpack sprayer measured after 7 days; details: in vivo, other, 168 h
[24] = system: Zea mays; assay: Toxicity in Zea mays Empire (maize) assessed as visible injury at 50 g ai/ha applied shortly post-emergence at three to five-leaf stage using backpack sprayer measured after 7 days; details: in vivo, other, 168 h
[25] = system: Zea mays; assay: Toxicity in Zea mays Empire (maize) assessed as visible injury at 25 g ai/ha applied shortly post-emergence at three to five-leaf stage using backpack sprayer measured after 14 days; details: in vivo, other, 336 h
[26] = system: Zea mays; assay: Toxicity in Zea mays GH2684 (maize) assessed as visible injury at 50 g ai/ha applied shortly post-emergence at three to five-leaf stage using backpack sprayer measured after 14 days; details: in vivo, other, 336 h
[27] = system: Zea mays; assay: Toxicity in Zea mays GH2298 (maize) assessed as visible injury at 50 g ai/ha applied shortly post-emergence at three to five-leaf stage using backpack sprayer measured after 28 days; details: in vivo, other, 672 h
[28] = system: Zea mays; assay: Toxicity in Zea mays GG214 (maize) assessed as marketable yield at 25 g ai/ha applied shortly post-emergence at three to five-leaf stage using backpack sprayer (reference value: 14.2 T/ha ); details: in vivo, other
[29] = system: Zea mays; assay: Toxicity in Zea mays GH2684 (maize) assessed as marketable yield at 25 g ai/ha applied shortly post-emergence at three to five-leaf stage using backpack sprayer (reference value: 15.5 T/ha ); details: in vivo, other
[30] = system: Zea mays; assay: Toxicity in Zea mays GG214 (maize) assessed as visible injury at 25 g ai/ha applied shortly post-emergence at three to five-leaf stage using backpack sprayer measured after 14 days; details: in vivo, other, 336 h
[31] = system: Zea mays; assay: Toxicity in Zea mays GH2041 (maize) assessed as plant height at 50 g ai/ha applied shortly post-emergence at three to five-leaf stage using backpack sprayer measured after 21 days (Rvb =80 cm); details: in vivo, other, 504 h
[32] = system: Zea mays; assay: Toxicity in Zea mays GG446 (maize) assessed as visible injury at 25 g ai/ha applied shortly post-emergence at three to five-leaf stage using backpack sprayer measured after 28 days; details: in vivo, other, 672 h
[33] = system: Zea mays; assay: Toxicity in Zea mays GH2684 (maize) assessed as plant height at 50 g ai/ha applied shortly post-emergence at three to five-leaf stage using backpack sprayer measured after 21 days (Rvb =73 cm); details: in vivo, other, 504 h

SMILES: COc1cc(OC)nc(NC(=O)NS(=O)(=O)c2c(C(=O)O)c(Cl)nn2C)n1 [HALOSULFURON]
- Activity [1]: 321 g
- Activity [2]: 287 g
- Activity [3]: 310 g
- Activity [4]: 289 g
- Activity [5]: 312 g
- Activity [6]: 0%
- Activity [7]: 79 cm
- Crop_yield [8]: 15.7 tons/ha
- Activity [9]: 370 g
- Activity [10]: 0%
- Activity [11]: 1%
- Activity [12]: 76 cm
- Activity [13]: 0%
- Activity [14]: 1%
- Crop_yield [15]: 19.3 tons/ha
- Activity [16]: 1%
- Activity [17]: 3%
- Activity [18]: 76 cm
- Crop_yield [19]: 16.4 tons/ha
- Activity [20]: 82 cm
- Activity [21]: 0%
- Activity [22]: 4%
- Activity [23]: 1%
- Activity [24]: 8%
- Activity [25]: 3%
- Activity [26]: 5%
- Activity [27]: 1%
- Crop_yield [28]: 13.4 tons/ha
- Crop_yield [29]: 15.5 tons/ha
- Activity [30]: 0%
- Activity [31]: 77 cm
- Activity [32]: 0%
- Activity [33]: 73 cm
